Test results published in patent EP2371816A1, “Aminocyclohexenone, their preparation and use as medicament against oxidative stress” (ABIOGEN PHARMA S.p.A., priority 2010, dated 2011).

How the values were obtained:
[1] = pH at the semi-neutralization point of titration (pKa); type: physicochemical; details: titration with 0.1 N NaOH or HCl
Protocol: The following equipment was used during the implementation of all the examples: • for melting point determination a Buchi B-540 instrument was used; • for pH determination at the semi-neutralization point of titration (pKa) a Mettler Toledo DL-50 instrument was used with a 0.1 N xNaOH or HCl solution; • the ^1H-NMR spectra were recorded at 300 MHz and the ^13C-NMR spectra were recorded at 75 MHz using a Varian Unity 300 instrument; • spectrophotometric measurements were carried out using a Lambda Perkin Elmer 15 UV/Vis spectrophotometer for the DPPH assay and a Wallac Victor 1420 multilabel counter spectrophotometer.

[2] = test system: cerebral oxidative stress induced in mice by doxorubicin; experiment: In vivo assay of cerebral oxidative stress induced in mice by doxorubicin; details: for Brain/BWi its own / CAT/pr its own / GPX/pr its own / GSH/pr its own / GST/pr its own / Prot. Hmg its own / Prot. Ox/pr its own / SOD/pr its own / Brain/BWi vehicle / CAT/pr vehicle / GPX/pr vehicle / GSH/pr vehicle / GST/pr vehicle / Prot. Hmg vehicle / Prot. Ox/pr vehicle / SOD/pr vehicle: % inhibition relative to variation due to doxorubicin alone, oxidized animals; for Brain/BWi its own / CAT/pr its own / GPX/pr its own / GSH/pr its own / GST/pr its own / Prot. Hmg its own / Prot. Ox/pr its own / SOD/pr its own: as function of its own control; for Brain/BWi vehicle / CAT/pr vehicle / GPX/pr vehicle / GSH/pr vehicle / GST/pr vehicle / Prot. Hmg vehicle / Prot. Ox/pr vehicle / SOD/pr vehicle: as function of vehicle; for Brain/BWi / CAT/pr / GPX/pr / GSH/pr / GST/pr / Prot. Hmg / Prot. Ox/pr / SOD/pr: % variation relative to the vehicle, 50 mg/kg IP x3 days (D = doxorubicin alone); for Brain/BWi / CAT/pr / GPX/pr / GSH/pr / GST/pr / Prot. Hmg / Prot. Ox/pr / SOD/pr / Mean % variation relative to the vehicle: healthy animals; for Mean % variation relative to the vehicle: 50 mg/kg IP days 0, 1 and 2, mean over all parameters, approximate safety index (D = doxorubicin alone); for overall percentage inhibition: with respect to Its own vehicle
Protocol: The assay was carried out on compounds (1) and (3)-(6) and on edaravone (E) as comparative compound.
10 mice were used for each treatment group. For each compound 50 mg/kg were administered intraperitoneally (IP) for three consecutive days (day 0, 1 and 2); half the animals (5) also received IP 16.7 mg/kg of doxorubicin immediately after the first treatment (day 0). On the day after the last administration (day 3) the animals were killed by neck dislocation and the brains were removed, weighed and frozen in liquid nitrogen.
For the analyses of oxidative stress, 100 mg/ml of brain homogenate was prepared in Hebe buffer (pH 7.4 EDTA/HEPES^(**)) containing a mixture of enzyme inhibitors (Leupeptin, Pepstatin, Aprotinin, BHA). • ^(*) Hypotonic Extraction Buffer • ^(**) 4-2-hydroxyethyl-1-piperazinyl-ethanesulphonic acid
The evaluation parameters were: • BrW/BWi: ratio between final brain weight and initial body weight (day 0); • Prot. Hmg: total proteins in the homogenate (BCA method, i.e. bicinchoninic acid); • Prot. Ox: oxidized proteins in the Hmg by means of a colorimetric method using […] (DNPH); • GSH: reduced glutathione in the supernatant (sn) of the Hmg, obtained after precipitation with metaphosphoric acid (MPA), by means of a colorimetric method using […] (DTNB); • CAT: catalase in the Hmg by a colorimetric method using potassium dichromate; • SOD: superoxide dismutase by a colorimetric method using SOD Reagent (xanthine, EDTA, nitroblue tetrazole, Na2CO3, BSA, i.e. bovine serum albumin); • GST: glutathione S-transferase in the supernatant by a colorimetric method using chlorodinitrobenzene (CDNB) and GSH; and • GPx: glutathione peroxidase in the supernatant after addition of GSH and tert butyl hydroperoxide (t-BuOOH), heating and precipitation with MPA; followed by GSH method with DTNB.
All the parameters, with the exclusion of Brain/BWi and Prot. Hmg, were normalized for total Hmg proteins (Table 3). The D value standard deviations and the % incidence relative to V are given in italics.
The mean % effect, on all the parameters simultaneously, of the triple treatment in the healthy animals, as mean percentage variation relative to the vehicle (table 4). This value is useful as an approximate safety index of the oxidative state of the brain, i.e. the capacity of the compounds of the invention not to alter cerebral homeostasis in healthy animals.
The effect of the tested compounds on the "oxidized" animals was given as % inhibition relative to the percentage variation due to doxorubicin alone. The effect of the compounds on the oxidized animals can be expressed both as a function of the values of the vehicle (healthy, vehicle only) and as a function of the value of its own control (healthy, compound only): • Vehicle: percentage [(Compound+D)/V]x100/[(V+D)/V]x100 • Its own: percentage [(Compound+D)/Compound]x100/[(V+D)/V]x100

[3] = mouse, in vivo
Protocol: The ability of the compounds of the invention to penetrate the brain was investigated by measuring their brain/plasma (B/P) concentration ratio in mice following intraperitoneal administration.
Female CD-1 mice were used (n=3 for each time period) and received the compounds of the invention by intraperitoneal administration, in 25 mg/kg doses in a 0.5% NaHCO3 buffer (pH 8.3). At predefined intervals following said administration, i.e. 5, 15, 30 and 60 minutes, the mice were killed and both plasma and total brain tissue were collected.
Specifically, after anaesthesia with ether, the animals were bled by blood withdrawal from the abdominal aorta then immediately decapitated. The blood samples were collected into plasma separator tubes containing Li-Heparin as anticoagulant and centrifuged. The resulting plasma was then stored at -20 °C. The brain was rapidly removed from the cranium and weighed, subsequently frozen and stored at -20 °C before treatment by homogenization and HPLC analysis.
The plasma was thawed and mixed with an equal volume of the extraction solution. This extraction solution was a mixture of aqueous and organic solvents whose composition had been previously determined by HPLC undertaken for each analyte.
1 ml of solution was then extracted by adding 20 µl of 70% HClO4 then centrifuged at 15,500g for 5 minutes and injected into the HPLC.
Each brain was thawed and homogenized with the extraction solution to provide a final composition of 4 ml/1g of tissue by means of an Ultra-Turrax blender and sonicated for 5 minutes. After centrifugation of the homogenate at 15,500g for 5 minutes, the resulting solution was treated with HClO4, as indicated for the plasma.
Specific chromatographic conditions had been developed for each analyte, the calibration curve being constructed for plasma and brain homogenate.

| Structure (SMILES) | Brain/BWi its own [2] | CAT/pr its own [2] | GPX/pr its own [2] | GSH/pr its own [2] | GST/pr its own [2] | Prot. Hmg its own [2] | Prot. Ox/pr its own [2] | SOD/pr its own [2] | Brain/BWi vehicle [2] | CAT/pr vehicle [2] | GPX/pr vehicle [2] | GSH/pr vehicle [2] | GST/pr vehicle [2] | Prot. Hmg vehicle [2] | Prot. Ox/pr vehicle [2] | SOD/pr vehicle [2] | Brain/BWi [2] | CAT/pr [2] | GPX/pr [2] | GSH/pr [2] | further results |
| --- | --- | --- | --- | --- | --- | --- | --- | --- | --- | --- | --- | --- | --- | --- | --- | --- | --- | --- | --- | --- | --- |
| CC1(C)CC(=O)C=C(NCCN2CCCCC2)C1 [(1), 5,5-dimethyl-3-(2-(piperidin-1-yl)ethylamino)cyclohex-2-enone] | -76.8% | -32.6% | -16.2% | -8.8% | 5.5% | -16.9% | -95.9% | -9.1% | -33.3% | 77.3% | 22.2% | -2.4% | 16.5% | 22.9% | -82.6% | 29.4% | -3.2% | -7.1% | -7.6% | -1.5% | Acid dissociation constants: pKa1 [1]: 2.82; Acid dissociation constants: pKa2 [1]: 8.64; GST/pr [2]: -2.3%; Prot. Hmg [2]: 5.3%; Prot. Ox/pr [2]: 1.4%; SOD/pr [2]: -5.9%; Mean % variation relative to the vehicle [2]: -4.3%; overall percentage inhibition [2]: greater than 40%; bioavailability at the target site / crossing of the blood-brain barrier [3]: particularly bioavailable, as well as able to cross the blood-brain barrier in effective amounts |
| O=C1C=C(NCCN2CCCCC2)CC(c2ccccc2)C1 (centres unmarked) [(3), 5-phenyl-3-(2-(piperidin-1-yl)ethylamino)cyclohex-2-enone] | -30.4% | -48.5% | 23.2% | 0.0% | 37.4% | -101.2% | -116.3% | 107.7% | -76.8% | 3.0% | -20.2% | -7.2% | -48.4% | -32.5% | -107.0% | 86.7% | 1.0% | -9.2% | 2.4% | 0.4% | Acid dissociation constants: pKa1 [1]: 2.82; Acid dissociation constants: pKa2 [1]: 8.46; GST/pr [2]: 4.1%; Prot. Hmg [2]: 2.3%; Prot. Ox/pr [2]: -7.8%; SOD/pr [2]: 1.1%; Mean % variation relative to the vehicle [2]: -1.3%; overall percentage inhibition [2]: greater than 40%; bioavailability at the target site / crossing of the blood-brain barrier [3]: particularly bioavailable, as well as able to cross the blood-brain barrier in effective amounts |
| CC1(C)CC(=O)C=C(NN2CCCCC2)C1 [(6), 5,5-dimethyl-3-(piperidin-1-ylamino)cyclohex-2-enone] | -18.8% | -28.8% | -100.0% | -72.8% | -36.3% | -97.6% | 45.9% | -60.8% | 10.1% | 6.8% | -34.3% | -10.4% | -18.7% | -8.4% | 21.5% | -2.1% | -2.5% | -6.4% | -8.7% | -9.6% | pKa ([1]; read-out: Acid dissociation constant: pKa): 2.62; GST/pr [2]: -2.5%; Prot. Hmg [2]: 8.4%; Prot. Ox/pr [2]: -5.6%; SOD/pr [2]: -10.8%; Mean % variation relative to the vehicle [2]: -5.4%; overall percentage inhibition [2]: greater than 40%; bioavailability at the target site / crossing of the blood-brain barrier [3]: particularly bioavailable, as well as able to cross the blood-brain barrier in effective amounts |
